From US11873298B2, “Compounds and uses thereof” (JANSSEN PHARMACEUTICA NV, priority 2017, dated 2024)

Experiments:
[1] = molecular target: T1, SCD5 (Homo sapiens, UniProt Q86SK9); experiment: Growth inhibition of humanized yeast strain expressing SCD5 as sole desaturase; type: cell-based; settings: humanized yeast strain, 40 h
T1 construct: host or cells: S. cerevisiae ole1Δ strain (W303 pdr1Δ pdr3Δ background), plasmid pRS316 with TDH3 promoter and CYC1 terminator
T1 sequence (Q86SK9 1-330): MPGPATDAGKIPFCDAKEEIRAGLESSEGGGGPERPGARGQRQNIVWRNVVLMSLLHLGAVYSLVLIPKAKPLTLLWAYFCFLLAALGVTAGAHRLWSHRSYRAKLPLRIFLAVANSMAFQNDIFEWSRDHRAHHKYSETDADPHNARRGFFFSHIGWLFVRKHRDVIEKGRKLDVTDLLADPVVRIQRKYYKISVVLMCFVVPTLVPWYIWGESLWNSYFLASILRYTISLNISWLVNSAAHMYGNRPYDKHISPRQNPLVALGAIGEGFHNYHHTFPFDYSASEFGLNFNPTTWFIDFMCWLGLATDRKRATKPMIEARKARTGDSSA
Method in brief: (§1)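 OD600 growth read-out. ole1Δ yeast, pdr1Δ pdr3Δ, with Ole1/SCD1/SCD5 on a plasmid; SX-Ura media throughout; 2× cell density 0.02 in CSM-Galactose; DMSO compound dilutions; humidified 30° C.; Ole1 stopped at 24 h, SCD1/SCD5 at 40 h.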

[2] = molecular target: T2, SCD1 (Homo sapiens, UniProt O00767); experiment: Growth inhibition of humanized yeast strain expressing SCD1 as sole desaturase; type: cell-based; settings: humanized yeast strain, 40 h
T2 construct: host or cells: S. cerevisiae ole1Δ strain (W303 pdr1Δ pdr3Δ background), plasmid pRS316 with TDH3 promoter and CYC1 terminator
T2 sequence (O00767 1-359): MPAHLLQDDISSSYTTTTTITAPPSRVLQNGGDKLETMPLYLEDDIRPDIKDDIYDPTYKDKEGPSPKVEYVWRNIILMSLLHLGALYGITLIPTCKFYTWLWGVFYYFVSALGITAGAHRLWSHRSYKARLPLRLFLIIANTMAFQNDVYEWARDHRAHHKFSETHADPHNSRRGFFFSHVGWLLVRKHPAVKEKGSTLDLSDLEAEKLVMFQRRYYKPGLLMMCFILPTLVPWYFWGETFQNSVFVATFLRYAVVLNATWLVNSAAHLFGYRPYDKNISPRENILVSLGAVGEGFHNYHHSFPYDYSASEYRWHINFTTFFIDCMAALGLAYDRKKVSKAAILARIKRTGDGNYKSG
Method in brief: as §1

Compound | IC50 [1] | IC50 [2]
CC(C)C(=O)N1CCC(c2noc(-c3ccc4oc(=O)n(C5COC5)c4c3)n2)CC1 [Compound 1126] | 2.74 µM | > 45 µM
O=C(C1CCC1)N1CCC(c2noc(-c3ccc4oc(=O)n(C5COC5)c4c3)n2)CC1 [Compound 1127] | 1.47 µM | > 45 µM
O=C(C1CC1)N1CCC(c2nc(-c3ccnc(F)c3)no2)CC1 [Compound 1128] | > 45 µM | > 45 µM
CC(C)C(=O)N1CCC(c2noc(-c3ccnc(Cl)c3)n2)CC1 [Compound 1129] | > 45 µM | > 45 µM
CC1(OC(=O)N2CCC(c3noc(-c4ccnc(Cl)c4)n3)CC2)CC1 [Compound 1130] | 9.9 µM | > 45 µM
O=C(N1CCC(c2noc(-c3ccc4oc(=O)n(C5COC5)c4c3)n2)CC1)C1(F)CC1 [Compound 1131] | 0.207 µM | > 45 µM
O=C(c1ccccc1F)N1CCC(c2noc(-c3ccnc(Cl)c3)n2)CC1 [Compound 1132] | > 45 µM | > 45 µM
CC(C)C(=O)N1CCN(c2noc(-c3ccnc(NC4COC4)c3)n2)CC1 [Compound 1133] | > 45 µM | > 45 µM
CC(C)(C)OC(=O)N1CCC(/C(N)=N/OC(=O)c2ccc3cnn(C4COC4)c3c2)CC1 [Compound 1134] | 0.0269 µM | > 45 µM
O=C(C1CC1)N1CCC(c2noc(-c3ccc4oc(=O)n(C5COC5)c4c3)n2)CC1 [Compound 1135] | 0.188 µM | > 45 µM
CC1(OC(=O)N2CCC(c3noc(-c4ccnc([C@H]5CCOC5)c4)n3)CC2)CC1 [Compound 1136] | 0.01 µM | > 45 µM
CC1(OC(=O)N2CCC(c3noc(-c4ccnc([C@@H]5CCOC5)c4)n3)CC2)CC1 [Compound 1137] | 0.0522 µM | > 45 µM
CC(C)C(=O)N1CCC(c2noc(-c3cnc4cnn(C5COC5)c4c3)n2)CC1 [Compound 1138] | 0.761 µM | > 45 µM
O=C(OC1CC1)N1CCC(c2noc(-c3cnc4cnn(C5COC5)c4c3)n2)CC1 [Compound 1139] | 0.096 µM | > 45 µM
O=C(N1CCC(c2noc(-c3cnc4cnn(C5COC5)c4c3)n2)CC1)C1(F)CC1 [Compound 1140] | 0.0613 µM | > 45 µM
O=C1CC(c2noc(-c3ccc4cnn(C5COC5)c4c3)n2)CCN1CC1CC1 (centres unmarked) [Compound 1141] | 0.865 µM | > 45 µM
CN1CC2CN(c3nc(-c4ccc5cnn(C6COC6)c5c4)no3)CCN2C1=O (centres unmarked) [Compound 1142] | > 45 µM | > 45 µM
CN1CC2CN(c3nc(-c4ccc5cn(C6COC6)nc5c4)no3)CCN2C1=O (centres unmarked) [Compound 1143] | > 45 µM | > 45 µM
CC(C)(C)OC(=O)N1CCC(c2cc(-c3cc4c(cn3)cnn4C3COC3)no2)CC1 [Compound 1144] | 0.01 µM | 1.78 µM
CC(C)(C)OC(=O)N1CCC(c2noc(-c3ccccc3N3CCOCC3)n2)CC1 [Compound 1145] | 11.1 µM | > 45 µM

Compound | IC50 [1] | IC50 [2]
CC(C)n1ncc2ccc(-c3nc(C4CCN(CC5CC5)C(=O)C4)no3)cc21 (centres unmarked) [Compound 1146] | 0.38 µM | > 45 µM
CCC(=O)N1CCC(c2cc(-c3cc4c(cn3)cnn4C3COC3)no2)CC1 [Compound 1147] | 5.46 µM | > 45 µM
O=C(N1CCN(c2noc(-c3ccnc(NC4COC4)c3)n2)CC1)C1(F)CC1 [Compound 1148] | 19.4 µM | > 45 µM
CC(C)(C)OC(=O)N1CCC(c2noc(-c3ccc(F)c(N4CCOCC4)c3)n2)CC1 [Compound 1149] | 0.01 µM | > 45 µM
CC(C)(C)OC(=O)N1CCC(c2noc(-c3ccc(N4CCOCC4)cc3)n2)CC1 [Compound 1150] | > 45 µM | > 45 µM
CC1(OC(=O)N2CCC(c3noc(-c4ccnc(NC5COC5)c4)n3)CC2)CC1 [Compound 1151] | 1.09 µM | > 45 µM
CC(C)(C)OC(=O)N1CCC(c2noc(-c3cccc(C4CCO4)c3)n2)CC1 (centres unmarked) [Compound 1152] | 0.01 µM | > 45 µM
CC(C)C(=O)N1CCC(c2noc(-c3ccnc(NC4COC4)c3)n2)CC1 [Compound 1153] | 0.84 µM | 1.94 µM
CC(C)(C)OC(=O)N1CCC(c2noc(-c3cccc(N4CCOCC4)c3F)n2)CC1 [Compound 1154] | 0.0157 µM | > 45 µM
CC(C)C(=O)N1CCC(c2noc(-c3ccnc(N(C)C4COC4)c3)n2)CC1 [Compound 1155] | > 45 µM | > 45 µM
CC(C)(C)OC(=O)N1CCC(c2noc(-c3cc(N4CCOCC4)ccc3F)n2)CC1 [Compound 1156] | 0.493 µM | > 45 µM
O=C(c1ccccc1F)N1CCC(c2noc(-c3ccnc(NC4COC4)c3)n2)CC1 [Compound 1157] | > 45 µM | > 45 µM
CN(c1cc(-c2nc(C3CCN(C(=O)OC4(C)CC4)CC3)no2)ccn1)C1COC1 [Compound 1158] | 3.5 µM | > 45 µM
CCC(=O)N1CCC(c2noc(-c3cccc(N4CCOCC4)c3F)n2)CC1 [Compound 1159] | > 45 µM | > 45 µM
CC(C)C(=O)N1CCC(c2noc(-c3cccc(N4CCOCC4)c3F)n2)CC1 [Compound 1160] | > 45 µM | > 45 µM
COC(=O)N1CCC(c2noc(-c3ccc(F)c(N4CCOCC4)c3)n2)CC1 [Compound 1161] | 0.0363 µM | > 45 µM
CC(C)C(=O)N1CCC(c2noc(-c3ccc(F)c(N4CCOCC4)c3)n2)CC1 [Compound 1162] | 0.0206 µM | 17.2 µM
COC(=O)N1CCC(c2noc(-c3ccc(N4CCOCC4)cc3)n2)CC1 [Compound 1163] | > 45 µM | > 45 µM
CCC(=O)N1CCC(c2noc(-c3ccc(F)c(N4CCOCC4)c3)n2)CC1 [Compound 1164] | 0.54 µM | > 45 µM
CC(C)C(=O)N1CCC(c2nc(-c3ccc(N4CCOCC4)cc3)no2)CC1 [Compound 1165] | > 45 µM | > 45 µM

Compound | IC50 [1] | IC50 [2]
CCC(=O)N1CCC(c2noc(-c3ccc(N4CCOCC4)cc3)n2)CC1 [Compound 1166] | > 45 µM | > 45 µM
CC(C)C(=O)N1CCC(c2noc(-c3ccccc3N3CCOCC3)n2)CC1 [Compound 1167] | > 45 µM | > 45 µM
CCC(=O)N1CCC(c2noc(-c3ccccc3N3CCOCC3)n2)CC1 [Compound 1168] | > 45 µM | > 45 µM
COC(=O)N1CCC(c2noc(-c3ccccc3N3CCOCC3)n2)CC1 [Compound 1169] | > 45 µM | 15.4 µM
CC(C)C(=O)N1CCC(c2noc(-c3ccnc(N4CCC(F)(F)C4)c3)n2)CC1 [Compound 1170] | 0.402 µM | > 45 µM
CC1(OC(=O)N2CCC(c3noc(-c4ccnc(N5CCC(F)(F)C5)c4)n3)CC2)CC1 [Compound 1171] | 0.0311 µM | 1.14 µM
CC(C)(C)OC(=O)N1CCC(c2noc(N3CCc4nn(C5COC5)cc4C3)n2)CC1 [Compound 1172] | 9.89 µM | ≥ 45 µM
CC(C)(C)OC(=O)N1CCC(c2noc(N3CCc4c(cnn4C4COC4)C3)n2)CC1 [Compound 1173] | 23.4 µM | ≥ 45 µM
CC(C)C(=O)N1CCC(c2noc(-c3cncc(N4CCC(F)(F)C4)c3)n2)CC1 [Compound 1174] | 10.4 µM | > 45 µM
CC(C)(C(=O)N1CCC(c2noc(-c3ccnc(C4CCOC4)c3)n2)CC1)C(F)(F)F (centres unmarked) [Compound 1175] | 0.21 µM | > 45 µM
O=C(N1CCC(c2noc(-c3ccnc(C4CCOC4)c3)n2)CC1)C1(C(F)(F)F)CCC1 (centres unmarked) [Compound 1176] | 0.14 µM | > 45 µM
O=C(N1CCC(c2noc(-c3ccnc(C4CCOC4)c3)n2)CC1)C1(C(F)(F)F)CC1 (centres unmarked) [Compound 1177] | 0.84 µM | > 45 µM
CC1(C(=O)N2CCC(c3noc(-c4ccnc(C5CCOC5)c4)n3)CC2)CC1 (centres unmarked) [Compound 1178] | 0.63 µM | > 45 µM
CC1(C(=O)N2CCC(c3noc(-c4ccnc(C5CCOC5)c4)n3)CC2)CCC1 (centres unmarked) [Compound 1179] | 0.11 µM | > 45 µM
O=C(C1CCC1)N1CCC(c2noc(-c3ccnc(C4CCOC4)c3)n2)CC1 (centres unmarked) [Compound 1180] | 0.06 µM | > 45 µM
CC(C)(C)OC(=O)N1CCC(c2noc(-c3cncc(N4CCC(F)(F)C4)c3)n2)CC1 [Compound 1181] | 0.47 µM | > 45 µM
Cn1cc(-c2cc(-c3nc(C4CCN(C(=O)OC(C)(C)C)CC4)no3)ccn2)cn1 [Compound 1182] | 0.72 µM | 0.83 µM
Cn1ccc(-c2cc(-c3nc(C4CCN(C(=O)OC(C)(C)C)CC4)no3)ccn2)n1 [Compound 1183] | > 45 µM | > 45 µM
